Test: Viscosity of crude blended with dimethyl sulfide (rheometer)
Type: physicochemical
Description: The quality of dimethyl sulfide as an oil recovery agent based on the crude oil viscosity lowering properties of dimethyl sulfide was evalulated. Three crude oils having widely disparate viscosity characteristics—an African Waxy crude, a Middle Eastern asphaltic crude, and a Canadian asphaltenic crude—were blended with dimethyl sulfide. A control sample of each crude was prepared containing no dimethyl sulfide, and samples of each crude were prepared and blended with dimethyl sulfide to prepare crude samples containing increasing concentrations of dimethyl sulfide. Each sample of each of the crudes was heated to 60° C. to dissolve any waxes therein and to permit weighing of a homogeneous liquid, weighed, allowed to cool overnight, then blended with a selected quantity of dimethyl sulfide. The samples of the crude/dimethyl sulfide blend were then heated to 60° C. and mixed to ensure homogeneous blending of the dimethyl sulfide in the samples. Absolute (dynamic) viscosity measurements of each of the samples were taken using rheometer and closed cup sensor assembly. Viscosity measurements of each of the samples of the West African waxy crude and the Middle Eastern asphaltic crude were taken at 20° C., 40° C., 60° C., 80° C., and then again at 20° C. after cooling from 80° C., where the second measurement at 20° C. is taken to measure the viscosity without the presence of waxes since wax formation occurs slowly enough to permit viscosity measurement at 20° C. without the presence of wax. Viscosity measurements of each of the samples of the Canadian asphaltenic crude were taken at 5° C., 10° C., 20° C., 40° C., 60° C., 80° C., The measured viscosities for each of the crudes are shown in Tables 3, 4, and 5 below.

In the case of `CSC` [Dimethyl Sulfide, dimethyl sulfide], the “Viscosity of Topped Canadian asphaltenic Crude” value (“Viscosity” for short) (DMS 1.43 wt. %, 20° C.) was 212525 mPa s, the “Viscosity” value (DMS 1.43 wt. %, 40° C.) was 14721 mPa s and the “Viscosity” value (DMS 1.43 wt. %, 60° C.) was 2209 mPa s. For the same compound, the “Viscosity” value (DMS 1.43 wt. %, 80° C.) was 538 mPa s, the “Viscosity” value (DMS 2.07 wt. %, 20° C.) was 134880 mPa s and the “Viscosity” value (DMS 2.07 wt. %, 40° C.) was 10523 mPa s. The “Viscosity” value (DMS 2.07 wt. %, 60° C.) was 1747 mPa s, the “Viscosity” value (DMS 2.07 wt. %, 80° C.) was 427 mPa s and the “Viscosity” value (DMS 4.87 wt. %, 20° C.) was 28720 mPa s. For the same compound, the “Viscosity” value (DMS 4.87 wt. %, 40° C.) was 3235 mPa s, the “Viscosity” value (DMS 4.87 wt. %, 60° C.) was 985 mPa s and the “Viscosity” value (DMS 4.87 wt. %, 80° C.) was 328 mPa s. The “Viscosity” value (DMS 8.01 wt. %, 20° C.) was 5799 mPa s, the “Viscosity” value (DMS 8.01 wt. %, 40° C.) was 982 mPa s and the “Viscosity” value (DMS 8.01 wt. %, 60° C.) was 275 mPa s. The “Viscosity” value (DMS 8.01 wt. %, 80° C.) was 106 mPa s, the “Viscosity” value (DMS 9.80 wt. %, 20° C.) was 2760 mPa s and the “Viscosity” value (DMS 9.80 wt. %, 40° C.) was 571 mPa s. For the same compound, the “Viscosity” value (DMS 9.80 wt. %, 60° C.) was 173 mPa s, the “Viscosity” value (DMS 9.80 wt. %, 80° C.) was 73 mPa s and the “Viscosity” value (DMS 14.81 wt. %, 5° C.) was 1794 mPa s. For the same compound, the “Viscosity” value (DMS 14.81 wt. %, 10° C.) was 1155 mPa s, the “Viscosity” value (DMS 14.81 wt. %, 20° C.) was 548 mPa s and the “Viscosity” value (DMS 14.81 wt. %, 40° C.) was 159 mPa s. For the same compound, the “Viscosity” value (DMS 14.81 wt. %, 60° C.) was 64 mPa s, the “Viscosity” value (DMS 14.81 wt. %, 80° C.) was 32 mPa s and the “Viscosity” value (DMS 19.78 wt. %, 20° C.) was 188 mPa s. The “Viscosity” value (DMS 19.78 wt. %, 40° C.) was 69 mPa s, the “Viscosity” value (DMS 19.78 wt. %, 60° C.) was 33 mPa s and the “Viscosity” value (DMS 19.78 wt. %, 80° C.) was 19 mPa s. For the same compound, the “Viscosity” value (DMS 29.88 wt. %, 5° C.) was 113 mPa s, the “Viscosity” value (DMS 29.88 wt. %, 10° C.) was 81 mPa s and the “Viscosity” value (DMS 29.88 wt. %, 20° C.) was 51 mPa s. The “Viscosity” value (DMS 29.88 wt. %, 40° C.) was 22 mPa s, the “Viscosity” value (DMS 29.88 wt. %, 60° C.) was 13 mPa s and the “Viscosity” value (DMS 29.88 wt. %, 80° C.) was 8 mPa s. The “Viscosity” value (DMS 39.61 wt. %, 5° C.) was 23 mPa s, the “Viscosity” value (DMS 39.61 wt. %, 10° C.) was 20 mPa s and the “Viscosity” value (DMS 39.61 wt. %, 20° C.) was 14 mPa s. The “Viscosity” value (DMS 39.61 wt. %, 40° C.) was 8 mPa s, the “Viscosity” value (DMS 39.61 wt. %, 60° C.) was 6 mPa s and the “Viscosity” value (DMS 39.61 wt. %, 80° C.) was 4 mPa s.

Source: US20140166543A1, “SYSTEM AND PROCESS FOR RECOVERING BITUMEN FROM OIL SANDS” (Shell Oil Company, priority 2012, published 2014)
